Laboratory results: patent US7935335B2, “Strains belonging to the genus Paenibacillus and method of controlling plant disease by using these strains or culture thereof” (Kaken Pharmaceutical Co., Ltd., priority 2004, dated 2011)

What was measured:
[1] = system: cucumber anthracnose fungus (Colletotrichum orbiculare); experiment: Test Example 2: control effect of purified spores on cucumber anthracnose; format: in vivo; conditions: 20 ppm
Text: Each of plastic pots was filled with horticultural compost and sown with cucumber (cultivar: 15 Suyo), followed by growing in a greenhouse for 20 days. The cucumber young seedling having a developed second true leaf was subjected to foliage application treatment with a spore preparation sample of strain BS-0105 obtained by formulating the bacterium of the present invention produced by the method described in each of Production Examples 4, 5, 6 and 7, by the method described in Formulation Example 1, so that the proportion of cells might be 2×10^7 CFU/mL. After the pots were allowed to stand in a dark moist chamber at 25° C. for 24 hours and then in a glass house at 25° C. for 4 days, the plants were inoculated with a suspension of cucumber anthracnose fungus conidia in distilled water (Colletotrichum orbiculare, 1×10^6 spores/ml) by spraying. The pots were allowed to stand in a dark moist chamber at 25° C. for 24 hours and then in a glass house at 25° C. for 7 days to cause the disease. Lesions in each leaf were counted and the protective value was calculated from the number of the lesions by the following equation to make a comparison with respect to control effect. Protective value={1−(number of lesions on treated plot/number of lesions on untreated plot)}×100

[2] = system: parsley cultured cells; experiment: Activity of inducing disease resistance: elicitor responsiveness of parsley cultured cells, phytoalexin detection by fluorescence; format: cell-based; conditions: Evaluation Example 1; elicitor treatment Yes; 2.5 μM
[3] = system: cucumber bacterial blight bacterium (Pseudomonas syringae pv. lachrymans); experiment: Evaluation Example 3: control effect on cucumber bacterial blight, plant foot drench; format: in vivo; conditions: 20 ppm
Experimental: Each of plastic pots was filled with horticultural compost and sown with cucumber (cultivar: Suyo), followed by growing in a greenhouse for 20 days. The cucumber young seedling having a developed second true leaf was subjected to plant foot drench treatment with the formulation obtained in the above-mentioned preparation example, in a proportion of 5 mL per seedling. After the pots were allowed to stand in a glass house at 25° C. for 3 days, the plants were inoculated with a suspension (1×10^8 CFU/mL) of cucumber bacterial blight bacterium (Pseudomonas syringae pv. lachrymans) in distilled water by spraying. The pots were allowed to stand in a dark moist chamber at 25° C. for 24 hours and then in a glass house at 25° C. for 7 days to cause the disease. Lesions in each leaf were counted and the protective value was calculated from the number of the lesions by the following equation to make a comparison with respect to control effect. Protective value={1−(number of lesions on treated plot/number of lesions on untreated plot)}×100

[4] = system: Fusarium wilt of cucumber fungus (Fusarium oxysporum f. sp. cucumerium); experiment: Evaluation Example 5: control effect on Fusarium wilt of cucumber; format: in vivo; conditions: 20 ppm, Spray
Experimental: Each of plastic vats was filled with horticultural compost and sown with cucumber (cultivar: Sagamihanjiro), followed by growing in a greenhouse for 12 days. The cucumber young seedling having a developed cotyledon was subjected to foliar spray treatment with the formulation obtained in the above-mentioned preparation example, in a proportion of 1 mL per seedling. After the vats were allowed to stand in a glass house at 25° C. for 3 days, the plant foot of each plant was inoculated with 2 mL of a suspension (3×10^7 spores/mL) of conidia of Fusarium wilt of cucumber fungus (Fusarium oxysporum f. sp. cucumerium) in distilled water by drench. The vats were allowed to stand in a glass house at 25° C. for 14 days to cause the disease. The disease severity was calculated from the degree of infection and then the protective value was calculated from the disease severity values by the following equation to make a comparison with respect to control effect. […]

[5] = system: cucumber anthracnose fungus (Colletotrichum orbiculare); experiment: Test Example 1: control effect of a culture of each strain on cucumber anthracnose; format: in vivo; conditions: cucumber first true leaf; 20 ppm
Experimental: Each of plastic pots was filled with horticultural compost and sown with cucumber (cultivar: Suyo), followed by growing in a greenhouse for 20 days. The cotyledon of the cucumber young seedling having a developed first true leaf was coated with 0.1 mL of whole culture of each of strains BS-0048, BS-0074, BS-0105 and BS-0277 prepared by the method described in Production Example 1. After the pots were allowed to stand in a glass house at 25° C. for 3 days, the plants were inoculated with a suspension of cucumber anthracnose fungus conidia in distilled water (Colletotrichum orbiculare, 1×10^6 spores/ml) by spraying. The pots were allowed to stand in a dark moist chamber at 25° C. for 24 hours and then in a glass house at 25° C. for 7 days to cause the disease. Lesions in the first true leaf of each seedling were counted and the protective value was calculated from the number of the lesions by the following equation to make a comparison with respect to control effect. Protective value={1−(number of lesions on treated plot/number of lesions on untreated plot)}×100

[6] = system: strawberry anthracnose fungus (Glomerella cigulata); experiment: Test Example 4: control effect of purified spores on strawberry anthracnose; format: in vivo; conditions: 20 ppm
Experimental: Strawberry seedlings (cultivar: Akihime) cultivated in plastic pots and having about 10 developed leaflets were subjected to foliage application treatment with a spore preparation sample of strain BS-0105 obtained by formulating the bacterium of the present invention produced by the method described in Production Example 5, by the method described in Formulation Example 2, so that the proportion of cells might be 2×10^7 CFU/mL. After the pots were allowed to stand in a dark moist chamber at 25° C. for 24 hours and then in a glass house at 25° C. for 3 days (or 1 day in the case of Amister 20 flowable), the plants were inoculated with a suspension of strawberry anthracnose fungus conidia in distilled water (Glomerella cigulata, 2×10^6 spores/ml) by spraying. The pots were allowed to stand in a dark moist chamber at 25° C. for 24 hours and then in a glass house at 25° C. for 14 days to cause the disease. The disease severity was calculated by the following equation and the protective value was calculated from the disease severity values by the following equation to make a comparison with respect to control effect. […]

SMILES: CSC(=O)c1cccc2nnsc12 [Acibenzolar-S-methyl, S-methyl 1,2,3-benzothiazole-7-carboxylate]
- First true leaf Number of lesions per leaf [1]: 0
- First true leaf Protective value [1]: 100
- Second true leaf Number of lesions per leaf [1]: 5.5
- Second true leaf Protective value [1]: 99
- Relative fluorescence [2]: 754.3
- Number of lesions per leaf [3]: 137.8 b
- Protective value [3]: 78.8
- Disease severity [4]: 9.4
- Protective value [4]: 75.6
- Number of lesions [5]: 5
- Protective value [5]: 96.7
- Disease severity [6]: 10.9 b
- Protective value [6]: 85.1
